Consider 2 molecules from patent US20240426832A1, “METHODS OF IDENTIFYING COMPOUNDS FOR INDUCING PROTEIN-PROTEIN INTERACTION” (Oncopia Therapeutics, Inc. d/b/a/ SK Life Science Labs, priority 2023, published 2024).

For assay [1], the target named is T1, IKZF2-CRBN (Homo sapiens, UniProt Q96SW2+Q9UKS7). The following applies: stated as known; cited from earlier work.
The next assay has as its target RBM39 and DCAF15 (Homo sapiens, UniProt Q14498+Q66K64). The following applies: stated as known; cited from earlier work.
In assay [2] the target is T1, IKZF2-CRBN. Briefly: glue screening assay (tripartite split-GFP fluorescence), GFP11-tagged IKZF2 and GFP10-tagged CRBN. The settings on record: protein mix GFP1-9, GFP11-IKZF2, IKZF2-GFP11, GFP10-CRBN, time-course, FIG. 5. Format: binding. As for the experimental part:
In another version of the assay, the glue screening assay mixture is assembled in a volume of 2 μL assay buffer (50 mM HEPES buffer, pH 7.5, 150 mM KCl, 4 mM DTT, 0.1 mg/mL BSA, 0.25 mM octyl-beta-glucopyranoside, 5% glycerol with 0.3 μg GFP1-9, 0.05 μg of GFP11-tagged IKZF2, and 0.3 μg GFP10-tagged CRBN. Various variations of the buffer provide consistent signal in this assay (0.1-1 mg/mL BSA, 0-10% glycerol, 0-1 mM octyl-beta-glucopyranoside). Similar to the previous version, two different versions of GFP11-tagged IKZF2 are tested with GFP11 fused to N- and C-termini of IKZF2 (GFP11-IKZF2 and IKZF2-GFP11, respectively). Likewise, two different versions of GFP10-tagged CRBN are tested: GFP10 fused to the N-terminus of CRBN (GFP10-CRBN) and GFP10 fused to the C-terminus of CRBN (CRBN-GFP10). Concentrations correspond to 5 μM of GFP (1-9), 1.25 μM of each of the IKZF2 constructs and 0.5 μM of each of the two CRBN constructs. Concentrations of the IKZF2 and CRBN proteins were optimized for best signal to background by titrating the proteins against each other.
For primary screens, these five different proteins (GFP1-9, GFP11-IKZF2, IKZF2-GFP11, GFP10-CRBN, and CRBN-GFP10) are combined in the assay buffer and added to the plates containing different compound pools. […]

T1 sequence (Q9UKS7 whole entry): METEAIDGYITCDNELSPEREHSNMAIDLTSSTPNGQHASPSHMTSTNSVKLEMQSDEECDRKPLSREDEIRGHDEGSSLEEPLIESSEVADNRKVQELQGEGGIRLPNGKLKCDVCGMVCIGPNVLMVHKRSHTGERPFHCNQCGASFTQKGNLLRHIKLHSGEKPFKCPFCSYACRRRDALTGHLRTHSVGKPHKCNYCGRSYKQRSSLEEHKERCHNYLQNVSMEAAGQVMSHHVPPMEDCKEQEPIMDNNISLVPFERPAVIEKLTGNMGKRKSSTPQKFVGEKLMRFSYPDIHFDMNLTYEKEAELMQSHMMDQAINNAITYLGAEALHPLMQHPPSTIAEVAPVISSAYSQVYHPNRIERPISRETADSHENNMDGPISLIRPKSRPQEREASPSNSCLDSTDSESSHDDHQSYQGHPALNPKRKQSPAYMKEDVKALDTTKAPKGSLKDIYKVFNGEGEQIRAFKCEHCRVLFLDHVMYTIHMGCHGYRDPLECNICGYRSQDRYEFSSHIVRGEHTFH
T1 sequence (Q96SW2 whole entry): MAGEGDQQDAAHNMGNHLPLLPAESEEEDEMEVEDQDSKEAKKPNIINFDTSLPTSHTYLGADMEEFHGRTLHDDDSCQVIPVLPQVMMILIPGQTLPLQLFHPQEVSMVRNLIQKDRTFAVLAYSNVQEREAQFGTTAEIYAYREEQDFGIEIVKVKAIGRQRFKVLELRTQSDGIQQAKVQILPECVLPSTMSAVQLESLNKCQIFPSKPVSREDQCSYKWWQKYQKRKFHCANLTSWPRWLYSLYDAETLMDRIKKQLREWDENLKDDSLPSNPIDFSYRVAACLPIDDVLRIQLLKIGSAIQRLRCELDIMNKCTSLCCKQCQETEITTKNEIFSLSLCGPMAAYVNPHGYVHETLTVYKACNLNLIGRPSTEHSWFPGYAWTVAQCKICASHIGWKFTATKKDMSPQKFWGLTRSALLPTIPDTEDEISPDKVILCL
Sequence of RBM39 and DCAF15 (Q14498 whole entry, species assumed): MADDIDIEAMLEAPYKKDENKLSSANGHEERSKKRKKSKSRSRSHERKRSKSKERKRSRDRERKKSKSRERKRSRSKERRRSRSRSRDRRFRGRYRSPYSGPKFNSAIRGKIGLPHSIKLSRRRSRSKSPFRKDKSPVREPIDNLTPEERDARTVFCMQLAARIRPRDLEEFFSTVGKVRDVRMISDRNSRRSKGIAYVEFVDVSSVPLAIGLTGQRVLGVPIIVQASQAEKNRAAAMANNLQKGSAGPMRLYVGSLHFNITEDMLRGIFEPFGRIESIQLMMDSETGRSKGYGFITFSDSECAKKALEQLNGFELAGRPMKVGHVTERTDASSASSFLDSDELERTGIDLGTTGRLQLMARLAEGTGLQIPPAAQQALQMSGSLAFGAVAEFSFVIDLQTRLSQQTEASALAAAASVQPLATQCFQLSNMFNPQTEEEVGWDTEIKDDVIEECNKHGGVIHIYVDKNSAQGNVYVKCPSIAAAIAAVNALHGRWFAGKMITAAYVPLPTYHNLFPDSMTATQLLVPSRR
Sequence of RBM39 and DCAF15 (Q66K64 whole entry, species assumed): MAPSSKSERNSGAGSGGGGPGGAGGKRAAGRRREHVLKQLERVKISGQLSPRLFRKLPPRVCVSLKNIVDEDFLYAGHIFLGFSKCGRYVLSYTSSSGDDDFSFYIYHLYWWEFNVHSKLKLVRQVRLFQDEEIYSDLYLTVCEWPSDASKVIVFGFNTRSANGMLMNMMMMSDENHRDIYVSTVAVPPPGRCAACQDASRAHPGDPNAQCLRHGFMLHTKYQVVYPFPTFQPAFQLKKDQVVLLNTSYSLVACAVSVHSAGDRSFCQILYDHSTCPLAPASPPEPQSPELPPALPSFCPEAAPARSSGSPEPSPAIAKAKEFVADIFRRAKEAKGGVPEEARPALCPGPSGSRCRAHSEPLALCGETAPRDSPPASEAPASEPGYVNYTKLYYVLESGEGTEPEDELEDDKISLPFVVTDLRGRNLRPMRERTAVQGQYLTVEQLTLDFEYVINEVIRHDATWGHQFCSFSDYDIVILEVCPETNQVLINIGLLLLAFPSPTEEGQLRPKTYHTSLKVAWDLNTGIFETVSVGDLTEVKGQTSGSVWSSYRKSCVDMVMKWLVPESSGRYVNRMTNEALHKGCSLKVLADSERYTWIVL

Regarding `NS(=O)(=O)c1ccc(S(=O)(=O)Nc2cccc3c(Cl)c[nH]c23)cc1` [Indisulam], on IKZF2-CRBN [1], the “glue activity for IKZF2-CRBN protein pair (known)” value is recorded as “devoid of glue activity”. For the same molecule, the “glue activity for protein pair RBM39 and DCAF15 (known)” value on RBM39 and DCAF15 is “known glues”. The “GFP signal over time compared to the DMSO control” value at IKZF2-CRBN [2] is “indistinguishable from the DMSO control”.

As to `Nc1ccc(S(=O)(=O)Nc2cnc3c(Cl)cccc3n2)cc1`, on IKZF2-CRBN [1], the “glue activity for IKZF2-CRBN protein pair (known)” value is reported as “devoid of glue activity”. The “glue activity for protein pair RBM39 and DCAF15 (known)” value at RBM39 and DCAF15 is on record as “known glues”. The “GFP signal over time compared to the DMSO control” value at IKZF2-CRBN [2] is “indistinguishable from the DMSO control”.
